From patent publication US10202361B2, “Pyridazinones as herbicides” (E I DU PONT DE NEMOURS AND COMPANY, priority 2014, dated 2019)

Tests used:
Test in all cases: Test D pre-/postemergence controlled growth environment herbicide test
Assay type in all cases: in vivo
Conditions in all cases: scale 0 to 100
[1] = tested on: buckwheat, wild (wild buckwheat, Polygonum convolvulus)
From the text: (§1) Seeds of plant species selected from bluegrass (annual bluegrass, Poa annua), blackgrass (Alopecurus myosuroides), canarygrass (Phalaris minor), chickweed (common chickweed, Stellaria media), galium (catchweed bedstraw, Galium aparine), downy bromegrass (Bromus tectorum), field poppy (Papaver rhoeas), field violet (Viola arvensis), foxtail, green (green foxtail, Setaria viridis), deadnettle (henbit deadnettle, Lamium amplexicaule), ryegrass, Italian (Italian ryegrass, Lolium multiflorum), kochia (Kochia scoparia), lambsquarters (Chenopodium album), oilseed rape (Brassica napus), pigweed (Amaranthus retroflexus), chamomile (scentless chamomile, Matricaria inodora), Russian thistle (Salsola kali), speedwell (bird's-eye speedwell, Veronica persica), barley, spring (spring barley, Hordeum vulgare), wheat, spring (spring wheat, Triticum aestivum), buckwheat, wild (wild buckwheat, Polygonum convolvulus), mustard, wild (wild mustard, Sinapis arvensis), oat, wild (wild oat, Avena fatua), radish, wild (wild radish, Raphanus raphanistrum), windgrass (Apera spica-venti), barley, winter (winter barley, Hordeum vulgare), and wheat, winter (winter wheat, Triticum aestivum) were planted into a silt loam soil and treated preemergence with test chemicals formulated in a non-phytotoxic solvent mixture which included a surfactant.
(§2) At the same time, these species were planted in pots containing Redi-Earth® planting medium (Scotts Company, 14111 Scottslawn Road, Marysville, Ohio 43041) comprising spaghnum peat moss, vermiculite, wetting agent and starter nutrients and treated with postemergence applications of the test chemicals formulated in the same manner. Plants ranged in height from 2 to 18 cm (1- to 4-leaf stage). Treated plants and controls were maintained in a controlled growth environment for 14 to 21 d after which time all species were compared to controls and visually evaluated. Plant response ratings, summarized in Table D, are based on a scale of 0 to 100 where 0 is no effect and 100 is complete control. A dash (-) response means no test result.

[2] = tested on: deadnettle (henbit deadnettle, Lamium amplexicaule)
From the text: as §1, §2

[3] = tested on: downy bromegrass (Bromus tectorum)
From the text: as §1, §2

[4] = tested on: field poppy (Papaver rhoeas)
From the text: as §1, §2

[5] = tested on: galium (catchweed bedstraw, Galium aparine)
From the text: as §1, §2

kochia (Kochia scoparia) = tested on: kochia (Kochia scoparia)
From the text: as §1, §2

[6] = tested on: mustard, wild (wild mustard, Sinapis arvensis)
From the text: as §1, §2

[7] = tested on: pigweed (Amaranthus retroflexus)
From the text: as §1, §2

[8] = tested on: wheat, winter (winter wheat, Triticum aestivum)
From the text: as §1, §2

[9] = tested on: windgrass (Apera spica-venti)
From the text: as §1, §2

Cc1cc(=O)n(-c2ccc(C(F)(F)F)cc2)nc1Cc1ccnc(C(F)(F)F)c1 [Compound 2, 5-methyl-2-[4-(trifluoromethyl)phenyl]-6-[[2-(trifluoromethyl)-4-pyridinyl]methyl]-3(2H)-pyridazinone]
Plant response rating ([1]; Postemergence, 31 g ai/ha): 20 | Plant response rating ([1]; Postemergence, 62 g ai/ha): 30 | Plant response rating ([1]; Postemergence, 125 g ai/ha): 50 | Plant response rating ([1]; Postemergence, 250 g ai/ha): 70 | Plant response rating ([1]; Postemergence, 500 g ai/ha): 80 | Plant response rating ([1]; Preemergence, 31 g ai/ha): 0 | Plant response rating ([1]; Preemergence, 62 g ai/ha): 20 | Plant response rating ([1]; Preemergence, 125 g ai/ha): 25 | Plant response rating ([1]; Preemergence, 250 g ai/ha): 100 | Plant response rating ([1]; Preemergence, 500 g ai/ha): 100 | Plant response rating ([2]; Postemergence, 31 g ai/ha): 40 | Plant response rating ([2]; Postemergence, 62 g ai/ha): 40 | Plant response rating ([2]; Postemergence, 125 g ai/ha): 70 | Plant response rating ([2]; Postemergence, 250 g ai/ha): 75 | Plant response rating ([2]; Postemergence, 500 g ai/ha): 90 | Plant response rating ([2]; Preemergence, 31 g ai/ha): 100 | Plant response rating ([2]; Preemergence, 62 g ai/ha): 100 | Plant response rating ([2]; Preemergence, 125 g ai/ha): 100 | Plant response rating ([2]; Preemergence, 250 g ai/ha): 100 | Plant response rating ([2]; Preemergence, 500 g ai/ha): 100 | Plant response rating ([3]; Postemergence, 31 g ai/ha): 10 | Plant response rating ([3]; Postemergence, 62 g ai/ha): 30 | Plant response rating ([3]; Postemergence, 125 g ai/ha): 30 | Plant response rating ([3]; Postemergence, 250 g ai/ha): 40 | Plant response rating ([3]; Postemergence, 500 g ai/ha): 45 | Plant response rating ([3]; Preemergence, 31 g ai/ha): 0 | Plant response rating ([3]; Preemergence, 62 g ai/ha): 0 | Plant response rating ([3]; Preemergence, 125 g ai/ha): 0 | Plant response rating ([3]; Preemergence, 250 g ai/ha): 20 | Plant response rating ([3]; Preemergence, 500 g ai/ha): 25 | Plant response rating ([4]; Postemergence, 31 g ai/ha): 25 | Plant response rating ([4]; Postemergence, 62 g ai/ha): 75 | Plant response rating ([4]; Postemergence, 125 g ai/ha): 100 | Plant response rating ([4]; Postemergence, 250 g ai/ha): 80 | Plant response rating ([4]; Postemergence, 500 g ai/ha): 100 | Plant response rating ([4]; Preemergence, 31 g ai/ha): 100 | Plant response rating ([4]; Preemergence, 62 g ai/ha): 100 | Plant response rating ([4]; Preemergence, 125 g ai/ha): 100 | Plant response rating ([4]; Preemergence, 250 g ai/ha): 100 | Plant response rating ([4]; Preemergence, 500 g ai/ha): 100 | Plant response rating ([5]; Postemergence, 31 g ai/ha): 40 | Plant response rating ([5]; Postemergence, 62 g ai/ha): 40 | Plant response rating ([5]; Postemergence, 125 g ai/ha): 50 | Plant response rating ([5]; Postemergence, 250 g ai/ha): 75 | Plant response rating ([5]; Postemergence, 500 g ai/ha): 85 | Plant response rating ([5]; Preemergence, 31 g ai/ha): 0 | Plant response rating ([5]; Preemergence, 125 g ai/ha): 75 | Plant response rating ([5]; Preemergence, 250 g ai/ha): 100 | Plant response rating ([5]; Preemergence, 500 g ai/ha): 100 | Plant response rating (kochia (Kochia scoparia); Postemergence, 31 g ai/ha): 40 | Plant response rating (kochia (Kochia scoparia); Postemergence, 62 g ai/ha): 70 | Plant response rating (kochia (Kochia scoparia); Postemergence, 125 g ai/ha): 80 | Plant response rating (kochia (Kochia scoparia); Postemergence, 250 g ai/ha): 85 | Plant response rating (kochia (Kochia scoparia); Postemergence, 500 g ai/ha): 85 | Plant response rating (kochia (Kochia scoparia); Preemergence, 31 g ai/ha): 20 | Plant response rating (kochia (Kochia scoparia); Preemergence, 62 g ai/ha): 30 | Plant response rating (kochia (Kochia scoparia); Preemergence, 125 g ai/ha): 100 | Plant response rating (kochia (Kochia scoparia); Preemergence, 250 g ai/ha): 100 | Plant response rating (kochia (Kochia scoparia); Preemergence, 500 g ai/ha): 100 | Plant response rating ([6]; Postemergence, 31 g ai/ha): 10 | Plant response rating ([6]; Postemergence, 62 g ai/ha): 70 | Plant response rating ([6]; Postemergence, 125 g ai/ha): 80 | Plant response rating ([6]; Postemergence, 250 g ai/ha): 100 | Plant response rating ([6]; Postemergence, 500 g ai/ha): 100 | Plant response rating ([6]; Preemergence, 31 g ai/ha): 0 | Plant response rating ([6]; Preemergence, 62 g ai/ha): 100 | Plant response rating ([6]; Preemergence, 125 g ai/ha): 100 | Plant response rating ([6]; Preemergence, 250 g ai/ha): 100 | Plant response rating ([6]; Preemergence, 500 g ai/ha): 100 | Plant response rating ([7]; Postemergence, 31 g ai/ha): 20 | Plant response rating ([7]; Postemergence, 62 g ai/ha): 20 | Plant response rating ([7]; Postemergence, 125 g ai/ha): 20 | Plant response rating ([7]; Postemergence, 250 g ai/ha): 30 | Plant response rating ([7]; Postemergence, 500 g ai/ha): 30 | Plant response rating ([7]; Preemergence, 31 g ai/ha): 30 | Plant response rating ([7]; Preemergence, 62 g ai/ha): 60 | Plant response rating ([7]; Preemergence, 125 g ai/ha): 70 | Plant response rating ([7]; Preemergence, 250 g ai/ha): 85 | Plant response rating ([7]; Preemergence, 500 g ai/ha): 100 | Plant response rating ([8]; Postemergence, 31 g ai/ha): 10 | Plant response rating ([8]; Postemergence, 62 g ai/ha): 10 | Plant response rating ([8]; Postemergence, 125 g ai/ha): 15 | Plant response rating ([8]; Postemergence, 250 g ai/ha): 15 | Plant response rating ([8]; Postemergence, 500 g ai/ha): 20 | Plant response rating ([8]; Preemergence, 31 g ai/ha): 0 | Plant response rating ([8]; Preemergence, 62 g ai/ha): 0 | Plant response rating ([8]; Preemergence, 125 g ai/ha): 30 | Plant response rating ([8]; Preemergence, 250 g ai/ha): 40 | Plant response rating ([8]; Preemergence, 500 g ai/ha): 45 | Plant response rating ([9]; Postemergence, 31 g ai/ha): 10 | Plant response rating ([9]; Postemergence, 62 g ai/ha): 15 | Plant response rating ([9]; Postemergence, 125 g ai/ha): 20 | Plant response rating ([9]; Postemergence, 250 g ai/ha): 25 | Plant response rating ([9]; Postemergence, 500 g ai/ha): 35 | Plant response rating ([9]; Preemergence, 31 g ai/ha): 20 | Plant response rating ([9]; Preemergence, 62 g ai/ha): 50 | Plant response rating ([9]; Preemergence, 125 g ai/ha): 60 | Plant response rating ([9]; Preemergence, 250 g ai/ha): 95 | Plant response rating ([9]; Preemergence, 500 g ai/ha): 100
